Experiments:
[1] = test system: SINAR (Sinapis arvensis, wild mustard); assay: Postemergence herbicidal activity of mixtures in cereal crops, greenhouse; format: in vivo, Sinapis arvensis L.
Experimental: Seeds of the desired test plant species were planted in Sun Gro MetroMix® 306 planting mixture, which typically has a pH of 6.0 to 6.8 and an organic matter content of about 30 percent, in plastic pots with a surface area of 103.2 square centimeters (cm^2). When required to ensure good germination and healthy plants, a fungicide treatment and/or other chemical or physical treatment was applied. The plants were grown for 7-36 days in a greenhouse with an approximate 14 hour photoperiod which was maintained at about 18° C. during the day and about 17° C. during the night. Nutrients and water were added on a regular basis and supplemental lighting was provided with overhead metal halide 1000-Watt lamps as necessary. The plants were employed for testing when they reached the second or third true leaf stage.
Treatments consisted of the benzyl ester of 4-amino-3-chloro-5-fluoro-6-(4-chloro-2-fluoro-3-methoxy-phenyl)pyridine-2-carboxylic acid (Compound A), formulated as an SC, a second cereal herbicide alone and then both in combination.
Other herbicidal components were applied on an active ingredient basis and included PSII-inhibiting herbicides.
Measured aliquots of benzyl ester of 4-amino-3-chloro-5-fluoro-6-(4-chloro-2-fluoro-3-methoxy-phenyl)pyridine-2-carboxylic acid (Compound A) were placed in 25 milliliter (mL) glass vials and diluted in a volume of 1.25% (v/v) Agri-Dex® crop oil concentrate to obtain stock solutions. Compound requirements are based upon a 12 mL application volume at a rate of 187 liters per hectare (L/ha). Spray solutions of the second cereal herbicide and experimental compound mixtures were prepared by adding the stock solutions to the appropriate amount of dilution solution to form 12 mL spray solution with active ingredients in two- and three-way combinations. Formulated compounds were applied to the plant material with an overhead Mandel track sprayer equipped with an 8002E nozzle calibrated to deliver 187 L/ha over an application area of 0.503 square meters (m^2) at a spray height of 18 inches (46 cm) above average plant canopy. Control plants were sprayed in the same manner with the solvent blank.
The treated plants and control plants were placed in a greenhouse as described above and watered by sub-irrigation to prevent wash-off of the test compounds. After 20-22 days, the condition of the test plants as compared with that of the control plants was determined visually and scored on a scale of 0 to 100 percent where 0 corresponds to no injury and 100 corresponds to complete kill.
Colby's equation was used to determine the herbicidal effects expected from the mixtures (Colby, S. R. 1967. Calculation of the synergistic and antagonistic response of herbicide combinations. Weeds 15:20-22).
The following equation was used to calculate the expected activity of mixtures containing two active ingredients, A and B: Expected=A+B−(A×B/100)

[2] = test system: ABUTH (Abutilon theophrasti, velvetleaf); assay: Pre-emergence soil-applied mixtures, greenhouse; format: in vivo, Abutilon theophrasti Medik.
Excerpt: Seeds or nutlets of the desired test plant species were planted in a soil matrix prepared by mixing a loam soil (32 percent silt, 23 percent clay, and 45 percent sand, with a pH of about 6.5 and an organic matter content of about 1.9 percent) and calcareous grit in an 80 to 20 ratio. The soil matrix was contained in plastic pots with a volume of 1 quart and a surface area of 83.6 square centimeters (cm^2).
Treatments consisted of the benzyl ester of 4-amino-3-chloro-5-fluoro-6-(4-chloro-2-fluoro-3-methoxy-phenyl)pyridine-2-carboxylic acid (compound A) formulated as an SC (suspension concentrate) and various herbicidal components alone and in combination. Forms of compound A were applied on an acid equivalent basis.
Other herbicidal components were applied on an acid equivalent or active ingredient basis and included the PSII-inhibiting herbicides, atrazine formulated as Atrazine® 90WDG, metribuzin formulated as Metribuzin 75DF, simazine formulated as Princep Caliber 90, tebuthiuron formulated as Spike 80DF, cyanazine (technical grade material), hexazinone (technical grade material), linuron (technical grade material), terbuthylazine (technical grade material), and diuron formulated as Diuron 4L.
Treatment requirements were calculated based upon the rates being tested, the concentration of active ingredient or acid equivalent in the formulation, and a 12 mL application volume at a rate of 187 L/ha.
For treatments comprised of formulated compounds, measured amounts of compounds were placed individually in 25 mL glass vials and diluted in a volume of 1.25% (v/v) Agri-Dex® crop oil concentrate (COC) to obtain 12× stock solutions. […] Application solutions were prepared by adding an appropriate amount of each stock solution (e.g., 1 mL) and diluted to the appropriate final concentrations with the addition of 10 mL of an aqueous mixture of 1.25% (v/v) COC so that the final spray solutions contained 1.25% (v/v) COC.
For treatments comprised of technical compounds, weighed amounts can be placed individually in 25 mL glass vials and dissolved in a volume of 97:3 (v/v) acetone/DMSO to obtain 12× stock solutions. […] Application solutions can be prepared by adding an appropriate amount of each stock solution (e.g., 1 mL) and diluted to the appropriate final concentrations with the addition of 10 mL of an aqueous mixture of 1.5% (v/v) COC so that the final spray solutions contain 1.25% (v/v) COC. When technical materials are used, the concentrated stock solutions can be added to the spray solutions so that the final acetone and DMSO concentrations of the application solutions are 16.2% and 0.5%, respectively.
For treatments comprised of formulated and technical compounds, weighed amounts of the technical materials can be placed individually in 25 mL glass vials and dissolved in a volume of 97:3 (v/v) acetone/DMSO to obtain 12× stock solutions, and measured amounts of the formulated compounds can be placed individually in 25 mL glass vials and diluted in a volume of 1.5% (v/v) COC or water to obtain 12× stock solutions. […] Application solutions can be prepared by adding an appropriate amount of each stock solution (e.g., 1 mL) and diluted to the appropriate final concentrations with the addition of an appropriate amount of an aqueous mixture of 1.5% (v/v) COC so that the final spray solutions contain 1.25% (v/v) COC. […]

COc1c(Cl)ccc(-c2nc(C(=O)OCc3ccccc3)c(Cl)c(N)c2F)c1F [Compound A Benzyl Ester, benzyl ester of 4-amino-3-chloro-5-fluoro-6-(4-chloro-2-fluoro-3-methoxy-phenyl)pyridine-2-carboxylic acid]
Visual Weed Control (%)-21 DAA SINAR Obs ([1]; Compound A Benzyl Ester 2.5 g ai/ha, Table 21): 70% | Visual Weed Control (%)-21 DAA SINAR Obs ([1]; Compound A Benzyl Ester 2.5 g ai/ha, Table 22): 70% | Visual Weed Control (%)-21 DAA SINAR Obs ([1]; Compound A Benzyl Ester 5 g ai/ha, Table 21): 73% | Visual Weed Control (%)-21 DAA SINAR Obs ([1]; Compound A Benzyl Ester 5 g ai/ha, Table 22): 73% | Visual Weed Control (%)-29 DAA ABUTH Obs ([2]; Compound A Benzyl Ester 16 g ae/ha): 65% | Visual Weed Control (%)-29 DAA ABUTH Obs ([2]; Compound A Benzyl Ester 32 g ae/ha): 93%

Source: patent US8912121B2, “Herbicidal compositions comprising 4-amino-3-chloro-5-fluoro-6-(4-chloro-2-fluoro-3-methoxyphenyl)pyridine-2-carboxylic acid or a derivative thereof and certain PS II inhibitors” (Dow Agrosciences LLC, priority 2012, dated 2014)
